EC50 and CC50 data for 50 compounds are collected here from patent publication US10221129B2, “Inhibitors of human immunodeficiency virus replication” (ViiV HEALTHCARE UK (NO.5) LIMITED, priority 2015, dated 2019).

Structures are written as SMILES.

Data set [1] deals with recombinant NL4-3 virus (nef section replaced with Renilla luciferase gene) in MT-2 cells. Description: HIV cell culture assay (antiviral activity, luciferase readout). In kind it is cell-based. The settings on record: Renilla, NL43, MT-2 cells infected for 4-5 days with recombinant NL4-3 Renilla luciferase virus. The gist of the method:
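Serial compound dilutions tested in MT-2 cells infected for 4-5 days with 293T-derived NL4-3 virus carrying Renilla luciferase in place of part of nef. Antiviral activity quantified as luciferase activity, read with a live-cell substrate.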

Data set [2] is described as follows: Compound cytotoxicity, XTT-based colorimetric assay. The settings on record: human, uninfected MT2 cells, day 4, XTT. In kind it is cell-based. In outline:
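Run under the antiviral-assay protocol but without virus. Viability was read on day 4 and CC50 values were derived from the readout.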
For orientation: Formazan colour is commonly taken as a measure of viable cells.

With `CN(C(=O)[C@H](Cc1cc(F)cc(F)c1)NC(=O)NS(=O)(=O)n1ccc2cccnc21)c1ccc2scnc2c1` [VN-8], the half-maximal effective concentration (EC50) (commonly the concentration needed to bring the measured effect to its halfway point) in data set [1] turned out to be 50 nM. For the same compound, the CC50 (commonly the concentration that lowers cell viability or growth by half) at 4 days in data set [2] was > 100000 nM.
As to `CN(C(=O)[C@H](Cc1cc(F)cc(F)c1)NC(=O)NS(=O)(=O)NC1CCC1)c1ccc2scnc2c1` [CA-132], the EC50 in data set [1] is 50 nM. The cytotoxic concentration (CC50) at 4 days in data set [2] is > 100000 nM.
As for `COc1ccc(N(C)C(=O)[C@H](Cc2ccccc2)NC(=O)NS(=O)(=O)NC(C)c2cnn(C)c2C)cc1` (stereo partly shown) [JB-60], in data set [1], the EC50 is 270 nM. The CC50 at 4 days in data set [2] is > 100000 nM.
On to `CN(C(=O)[C@H](Cc1cc(F)cc(F)c1)NC(=O)NS(=O)(=O)n1ncc2c(Cl)cccc21)c1ccc2scnc2c1` [ZY-19], for which the EC50 in data set [1] stood at 360 nM. Also, the CC50 at 4 days in data set [2] is > 33300 nM.
For `COc1ccc(N(C)C(=O)[C@H](Cc2ccccc2)NC(=O)NS(=O)(=O)Nc2cccc(Cl)c2Cl)cc1` [CA-30] the same measures were 80 nM and > 100000 nM.
For `Cc1cnc(CNS(=O)(=O)NC(=O)N[C@@H](Cc2cc(F)cc(F)c2)C(=O)N(C)c2ccc3scnc3c2)cn1` [CA-150] the same measures were 460 nM and > 100000 nM.
The like results for `CCN(CC)S(=O)(=O)NC(=O)N[C@@H](Cc1cc(F)cc(F)c1)C(=O)N(C)c1ccc2scnc2c1` [VN-21] were, in that order, 20 nM and > 33300 nM.
Consider `CCOc1ccc(N(CC)C(=O)[C@H](Cc2ccccc2)NC(=O)NS(=O)(=O)N2CCc3cccnc32)cc1` [JB-71], for which the EC50 in data set [1] was 130 nM. Further, the CC50 at 4 days in data set [2] is > 33300 nM.
For `CN(C(=O)[C@H](Cc1cc(F)cc(F)c1)NC(=O)NS(=O)(=O)N1CCOCC1)c1ccc2scnc2c1` [VN-23] the same measures were 170 nM and > 100000 nM.
The like results for `CN(C(=O)[C@H](Cc1cc(F)cc(F)c1)NC(=O)NS(=O)(=O)N(C)c1cccnc1)c1ccc2scnc2c1` [CA-120] were, in that order, 270 nM and > 100000 nM.
As to `COc1ccc(N(C)C(=O)[C@H](Cc2ccccc2)NC(=O)NS(=O)(=O)NCc2cnc3ccccc3c2)cc1` [JB-45], in data set [1], the EC50 is 9450 nM. For the same compound, the CC50 at 4 days in data set [2] was > 50000 nM.
For `COc1ccc(N(C)C(=O)[C@H](Cc2ccccc2)NC(=O)NS(=O)(=O)Nc2cccc(Oc3ccccc3)c2)cc1` [CA-36] the same measures were 200 nM and > 33300 nM.
For `CCc1ccc(N(C)C(=O)[C@H](Cc2cc(F)cc(F)c2)NC(=O)NS(=O)(=O)N2CCc3cccnc32)cn1` [GW-3] the same measures were 20 nM and > 100000 nM.
For `COc1ccc(N(C)C(=O)[C@H](Cc2ccccc2)NC(=O)NS(=O)(=O)Nc2ccc(OC(F)(F)F)cc2)cc1` [CA-34] the same measures were 180 nM and > 33300 nM.
Take `COc1ccc(N(C)C(=O)[C@H](Cc2ccccc2)NC(=O)NS(=O)(=O)N(C)c2ccccc2OC)cc1` [JB-23]: in data set [1], the concentration giving a half-maximal response (EC50) is 870 nM. Moreover, the CC50 at 4 days in data set [2] is > 100000 nM.
The like results for `COc1ccc2c(n1)N(S(=O)(=O)NC(=O)N[C@@H](Cc1cc(F)cc(F)c1)C(=O)N(C)c1ccc3scnc3c1)CC2` [AW-2] were, in that order, 10 nM and > 100000 nM.
For `CN(C(=O)[C@H](Cc1cc(F)cc(F)c1)NC(=O)NS(N)(=O)=O)c1ccc2scnc2c1` [VN-25] the same measures were 150 nM and 79600 nM.
On to `CN(C(=O)[C@H](Cc1cc(F)cc(F)c1)NC(=O)NS(=O)(=O)N1CCNC(=O)C1)c1ccc2scnc2c1` [CA-151], for which, in data set [1], the EC50 was determined as 1070 nM. Also, in data set [2], the CC50 at 4 days is > 100000 nM.
The like results for `CCc1ccc(CN(C)S(=O)(=O)NC(=O)N[C@@H](Cc2ccccc2)C(=O)N(C)c2ccc(OC)cc2)cc1` [JB-41] were, in that order, 5060 nM and > 33300 nM.
In the case of `COc1ccc(N(C)C(=O)[C@H](Cc2ccccc2)NC(=O)NS(=O)(=O)Nc2cccc3ncccc23)cc1` [CA-8], the EC50 in data set [1] was determined as 590 nM. Also, the CC50 at 4 days in data set [2] is > 100000 nM.
In the case of `CN(C(=O)[C@H](Cc1cc(F)cc(F)c1)NC(=O)NS(=O)(=O)NC1CC1)c1ccc2scnc2c1` [CA-142], the EC50 in data set [1] came out at 40 nM. For the same compound, the CC50 at 4 days in data set [2] was > 100000 nM.
For `CCOc1ccc(N(CC)C(=O)[C@H](Cc2ccccc2)NC(=O)NS(=O)(=O)N2CCc3ccccc32)cc1` [JB-73] the same measures were 50 nM and > 33300 nM.
As for `COc1ccc(N(C)C(=O)[C@H](Cc2ccccc2)NC(=O)NS(=O)(=O)NCC(=O)N2CCOCC2)cc1` [CA-59], in data set [1], the EC50 came out at 6140 nM. Besides, in data set [2], the CC50 at 4 days was > 100000 nM.
For `COc1ccc(N(C)C(=O)[C@H](Cc2ccccc2)NC(=O)NS(=O)(=O)N(C)C(c2ccccc2)c2ccccc2)cc1` [JB-40] the same measures were 2880 nM and 66500 nM.
Take `CC(=O)NCCNS(=O)(=O)NC(=O)N[C@@H](Cc1cc(F)cc(F)c1)C(=O)N(C)c1ccc2scnc2c1` [CA-137]: in data set [1], the concentration giving a half-maximal response (EC50) amounted to 1220 nM. Also, the CC50 at 4 days in data set [2] is > 100000 nM.
The like results for `COc1ccc(N(C)C(=O)[C@H](Cc2ccccc2)NC(=O)NS(=O)(=O)n2ccc3c(F)c(F)c(F)c(F)c32)cc1` [JB-78] were, in that order, 370 nM and > 33300 nM.
As to `COc1ccc(N(C)C(=O)[C@H](Cc2ccccc2)NC(=O)NS(=O)(=O)Nc2ccccc2Cl)cc1` [JB-5], the EC50 in data set [1] was 100 nM. In addition, the CC50 at 4 days in data set [2] was > 100000 nM.
For `CN(C(=O)[C@H](Cc1cc(F)cc(F)c1)NC(=O)NS(=O)(=O)N1CCc2cccnc21)c1ccc(OC(F)F)cc1` [BB-35] the same measures were 10 nM and 97200 nM.
For `CN(C(=O)[C@H](Cc1cc(F)cc(F)c1)NC(=O)NS(=O)(=O)N1CCc2cccnc21)c1ccc(CC(F)F)cc1` [BB-24] the same measures were 10 nM and > 33300 nM.
The like results for `CN(C(=O)[C@H](Cc1cc(F)cc(F)c1)NC(=O)NS(=O)(=O)N1CCOc2cccnc21)c1ccc2scnc2c1` [AW-1] were, in that order, 110 nM and > 100000 nM.
In the case of `CC(C)c1ccc(N(C)C(=O)[C@H](Cc2cc(F)cc(F)c2)NC(=O)NS(=O)(=O)N2CCc3cccnc32)cn1` [BB-18], in data set [1], the 50% effective concentration (EC50) came out at 10 nM. In addition, the CC50 at 4 days in data set [2] is > 100000 nM.
On to `COc1ccc(N(C)C(=O)[C@H](Cc2ccccc2)NC(=O)NS(=O)(=O)Nc2ncccn2)cc1` [JB-29], for which the EC50 in data set [1] came to 1600 nM. The CC50 at 4 days in data set [2] is > 100000 nM.
Turning to `CN(C(=O)[C@H](Cc1ccccc1)NC(=O)NS(=O)(=O)Nc1ccccc1Cl)c1ccc2ncccc2c1` [JB-10], the EC50 in data set [1] amounted to 50 nM. Also, in data set [2], the CC50 at 4 days was > 100000 nM.
For `CN(C(=O)[C@H](Cc1cc(F)cc(F)c1)NC(=O)NS(=O)(=O)N1CCc2ccncc21)c1ccc2scnc2c1` [BB-9], the EC50 in data set [1] is 410 nM. Besides, the CC50 at 4 days in data set [2] was > 100000 nM.
The like results for `CCOc1ccc(N(CC)C(=O)[C@H](Cc2ccccc2)NC(=O)NS(=O)(=O)N2CCc3cc(Cl)cc(Cl)c32)cc1` [JB-76] were, in that order, 8750 nM and > 33300 nM.
For `COc1ccc(N(C)C(=O)[C@H](Cc2ccccc2)NC(=O)NS(=O)(=O)NC(C)c2ncnn2C)cc1` (mixture of isomers) [JB-68] the same measures were 2370 nM and > 100000 nM.
For `CN(C(=O)[C@H](Cc1cc(F)cc(F)c1)NC(=O)NS(=O)(=O)N1CCc2cccnc21)c1ccc(C(N)=O)cc1` [BB-5] the same measures were 4910 nM and > 100000 nM.
With `COc1ccc(N(C)C(=O)[C@H](Cc2ccccc2)NC(=O)NS(=O)(=O)Nc2cccc(F)c2)cc1` [CA-10], the concentration for a half-maximal effect (EC50) in data set [1] was 70 nM. Further, the 50% cytotoxic concentration (CC50) at 4 days in data set [2] is > 100000 nM.
Take `Cc1cc(F)cc(N(C)C(=O)[C@H](Cc2cc(F)cc(F)c2)NC(=O)NS(=O)(=O)N2CCc3cccnc32)c1` [BB-13]: in data set [1], the EC50 was determined as 270 nM. This compound showed a CC50 at 4 days in data set [2] of 89500 nM.
In the case of `COc1ccc(N(C)C(=O)[C@H](Cc2ccccc2)NC(=O)NS(=O)(=O)N2CCc3cc(C)ccc32)cc1` [CA-2], the EC50 in data set [1] was 140 nM. In data set [2], the CC50 at 4 days was > 33300 nM.
`CN(C(=O)[C@H](Cc1cc(F)cc(F)c1)NC(=O)NS(=O)(=O)Nc1ccccc1)c1ccc2scnc2c1` [CA-115]: the EC50 in data set [1] came to 60 nM. Also, the CC50 at 4 days in data set [2] was > 100000 nM.
`CN(C(=O)[C@H](Cc1cc(F)cc(F)c1)NC(=O)NS(=O)(=O)n1ncc2cc(F)ccc21)c1ccc2scnc2c1` [ZY-20]: the EC50 in data set [1] worked out at 4190 nM. In addition, in data set [2], the CC50 at 4 days is > 100000 nM.
For `COc1ccc(N(C)C(=O)[C@H](Cc2ccccc2)NC(=O)NS(=O)(=O)Nc2ccc(-n3cccc3)cc2)cc1` [CA-45] the same measures were 520 nM and > 33300 nM.
On to `COc1ccc(N(C)C(=O)[C@H](Cc2ccccc2)NC(=O)NS(=O)(=O)Nc2ccc(Cl)cc2)cc1` [JB-22], for which the EC50 in data set [1] amounted to 70 nM. For the same compound, in data set [2], the CC50 at 4 days is > 100000 nM.
The like results for `COc1ccc(N(C)C(=O)[C@H](Cc2ccccc2)NC(=O)NS(=O)(=O)Nc2ccc3c(c2)CS(=O)(=O)C3)cc1` [CA-48] were, in that order, 260 nM and > 100000 nM.
For `COc1ccc(N(C)C(=O)[C@H](Cc2ccccc2)NC(=O)NS(=O)(=O)Nc2ccccc2C(F)(F)F)cc1` [CA-60] the same measures were 870 nM and > 100000 nM.
`Cc1ccc(N(C)C(=O)[C@H](Cc2cc(F)cc(F)c2)NC(=O)NS(=O)(=O)N2CCc3cncnc32)cc1F` [BB-14]: the concentration giving a half-maximal response (EC50) in data set [1] came out at 20 nM. The compound also gave a cytotoxic concentration (CC50) at 4 days in data set [2] of 93100 nM.
For `CN(C(=O)[C@H](Cc1cc(F)cc(F)c1)NC(=O)NS(=O)(=O)NCCO)c1ccc2scnc2c1` [CA-138] the same measures were 270 nM and > 100000 nM.
For `COc1ccc(N(C)C(=O)[C@H](Cc2ccccc2)NC(=O)NS(=O)(=O)Nc2cccc(C(N)=O)c2)cc1` [JB-61] the same measures were 4910 nM and > 100000 nM.
For the compound `COc1ccc(N(C)C(=O)[C@H](Cc2ccccc2)NC(=O)NS(=O)(=O)Nc2ccccc2F)cc1` [CA-7], the EC50 in data set [1] came to 140 nM. Also, the CC50 at 4 days in data set [2] is > 100000 nM.
